Results: US8642640B2, “1-phenylpyrrole derivatives” (Exelixis, Inc., priority 2008, dated 2014)

How the values were obtained:
[1] = biological target: T1, human mineralocorticoid receptor (hMR) (Homo sapiens, UniProt P08235); test: GAL4-hMR-LBD luciferase reporter assay in HEK293 cells with 1 nM aldosterone (Test Example 1); assay type: cell-based; settings: for Emax: HEK293, read-out: Imax; for IC50: concentration showing Imax/2, HEK293, GAL4-hMR-LBD, 1 nM aldosterone, overnight, read-out: ICmax50;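 as to Imax: 0% is DMSO-only control and 100% is 1 nM aldosterone alone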
T1 construct: expressed in transfected cells; host or cells: HEK293
T1 sequence (P08235 726-964 limits assumed): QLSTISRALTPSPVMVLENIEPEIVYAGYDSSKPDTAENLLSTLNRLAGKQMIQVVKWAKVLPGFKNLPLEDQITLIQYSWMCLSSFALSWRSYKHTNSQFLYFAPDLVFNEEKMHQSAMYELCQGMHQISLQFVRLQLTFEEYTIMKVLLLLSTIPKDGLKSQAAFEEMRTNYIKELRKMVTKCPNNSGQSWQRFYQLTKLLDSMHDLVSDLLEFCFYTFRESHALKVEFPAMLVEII
Protocol: A plasmid pM-hMR-LBD expressing GAL4-hMR receptor, which has a ligand binding domain (LBD, corresponding to approximately 308 amino acids at the carboxy terminus) of human mineralocorticoid receptor (hMR, NM_000901) bonded to a DNA binding domain of yeast transcription factor GAL4 (corresponding to 147 amino acids at the amino terminus), was prepared. Reporter assay was conducted by using a reporter plasmid (such as plasmid pFR-Luc of […] CLONING SYSTEMS) including a luciferase gene, having a sequence (UAS sequence) which binds to the DNA binding domain of GAL4.
The plasmid pM-hMR-LBD and the reporter plasmid as obtained above were gene transferred into renal cell line HEK293 of human fetus by lipofection. On the next day, cells were collected by trypsin treatment, and dispensed with DMEM culture medium containing 5% of FBS treated by activated charcoal, to a white 96-well plate (Costar) with the amount of 95 microliter per well.
The test compounds were used as dissolved in dimethyl sulfoxide at a predetermined concentration, and the test compounds suitably diluted with culture media were added to the cells on the white 96-well plate so that the final concentration becomes 0.1%. […] After the addition, cultivation was carried out overnight.
On the next day, the culture media was removed, and then luciferase substrate (Wako Pure Chemical Industries, Ltd.) was prepared in accordance with the attached document and were added to each well by 50 microliters. Stirring was conducted for approximately 30 minutes, and the amount of luminescence was measured for each well by using Analyst (Molecular Devices), to obtain luciferase activity. A graph which plots relative luciferase activity values, when the luciferase activity value of Control group 1 was taken as 0% and the luciferase activity value of Control group 2 was taken as 100%, for each of the amount of the test compound addition group was made.

[2] = Plasma concentration after intragastric administration to cynomolgus monkey (Test Example 2); assay type: in vivo; settings: for AUC, area under the plasma concentration versus time curve / Cmax: male cynomolgus monkey, 3 mg/kg intragastric in 0.5% MC, LC-MS/MS, plasma; for AUC, area under the plasma concentration versus time curve: noncompartment model; for Cmax: po, read-out: Cmax, maximum concentration
Protocol: Cynomolgus monkey (male) was used, and it was fasted from the day before administration of the test compound.
Administration samples were prepared by adding a 0.5% MC (methyl cellulose) solution to the Test Compound, so that the dose becomes 3 mg/2 mL/kg. Each of the administration samples was administered intragastrically to the cynomolgus monkey by using a tube. After the samples were administered, approximately 5 mL of 0.5% MC was administered. For each of the administration samples, a group of two cynomolgus monkeys was administered.
With respect to collection of blood, it was conducted by collecting approximately 0.5 mL of blood from crotch vein using a glass syringe treated with heparin, before administration, and 30 minutes, 1, 2, 4, 6, 8, 24 and 48 hours after administration. Blood was centrifuged (1,700×g, 15 min, 4° C.) to obtain plasma. Plasma was stored in a freezer (−20° C.) until pretreatment.
Preparation of standard solution and internal standard (IS) solution: Each of the Test Compounds was dissolved in DMSO (dimethyl sulfoxide) to prepare a solution of 10 mM each. Each of the compound solution was diluted with acetonitrile, and thus standard solution was prepared. Further, niflumic acid (Wako Pure Chemical Industries, Ltd.) was dissolved in DMSO at the concentration of 2 mM, followed by dilution with acetonitrile to prepare an IS solution of 2 μM.
Pretreatment of plasma samples: 20 μL of plasma sample was collected, and then 25 μL of purified water, 100 μL of acetonitrile, and 100 μL of methanol was added. For the preparation of a calibration curve, 25 μL of purified water, 20 μL of each of the standard solutions (acetonitrile solution), 80 μL of acetonitrile, and 100 μL of methanol were added to 20 μL of blank plasma. 40 μL of the acetonitrile solution of IS was added to all of the samples, and then the samples were stirred, filtered by suction using Captiva filter plate (Varian, Inc.), and then the filtrate was used as the sample for LC-MS/MS analysis.
Quantitative Determination of Test Compound: Concentration in plasma was analyzed by LC-MS/MS method for each Test Compound.
Analysis: Pharmacokinetic parameter was calculated from concentration of each of the drugs in plasma, by using WinNonlin Professional (Ver. 4.0.1, Pharsight Corporation). Here, Noncompartment model was used as the model for parameter calculation.

SMILES | Emax [1] [%] | IC50 [1] [nM] | AUC, area under the plasma concentration versus time curve [2] [ng·h/mL] | Cmax [2] [ng/mL] | concentration in plasma compared with Reference compound A and Reference compound B ([2]; summary of Table 16, cynomolgus monkey, 3 mg/kg)
Cc1c(C(=O)Nc2ccc(S(C)(=O)=O)cc2)cc(CCO)n1-c1ccc(Cl)cc1C(F)(F)F (single isomer, unassigned) [Example 1 - isomer A, 1-[4-Chloro-2-(trifluoromethyl)phenyl]-5-(2-hydroxyethyl)-2-methyl-N-[4-(methylsulfonyl)phenyl]-1H-pyrrole-3-carboxamide] | 87 | 3.7 | 14110 | 990 | 
Cc1c(C(=O)Nc2ccc(S(C)(=O)=O)cc2)cc(C[C@H](C)O)n1-c1ccc(Cl)cc1C(F)(F)F (single isomer, unassigned) [Example 6 - isomer A] | 79 | 3.1 | 30280 | 1730 | 
Cc1cc(NC(=O)c2cc(C[C@H](C)O)n(-c3ccc(F)cc3OC(F)F)c2C)ccc1S(C)(=O)=O [Example 22, 1-[2-(Difluoromethoxy)-4-fluorophenyl]-5-[(2S)-2-hydroxypropyl]-2-methyl-N-[3-methyl-4-(methylsulfonyl)phenyl]-1H-pyrrole-3-carboxamide] | 111 | 9.1 |  |  | 
CCc1c(C(=O)Nc2ccc(S(C)(=O)=O)cc2)cc(C[C@H](C)O)n1-c1ccc(F)cc1Cl [Example 44, 1-(2-Chloro-4-fluorophenyl)-2-ethyl-5-[(2S)-2-hydroxypropyl]-N-[4-(methylsulfonyl)phenyl]-1H-pyrrole-3-carboxamide] | 111 | 24 |  |  | 
Cc1c(C(=O)Nc2ccc(S(N)(=O)=O)c(Cl)c2)cc(C[C@H](C)O)n1-c1ccc(F)cc1Cl [Example 49, N-[4-(Aminosulfonyl)-3-chlorophenyl]-1-(2-chloro-4-fluorophenyl)-5-[(2S)-2-hydroxypropyl]-2-methyl-1H-pyrrole-3-carboxamide] | 96 | 8.3 |  |  | 
Cc1c(C(=O)Nc2ccc(S(C)(=O)=O)cc2)cc(C[C@H](C)O)n1-c1ccc(Cl)cc1-c1ccc(F)cc1 [Example 50, 1-(5-Chloro-4′-fluorobiphenyl-2-yl)-5-[(2S)-2-hydroxypropyl]-2-methyl-N-[4-(methylsulfonyl)phenyl]-1H-pyrrole-3-carboxamide] | 114 | 2.7 |  |  | 
Cc1cc(Cl)ccc1-n1c(CCF)cc(C(=O)Nc2ccc(S(C)(=O)=O)cc2)c1C [Example 51, 1-(4-Chloro-2-methylphenyl)-5-(2-fluoroethyl)-2-methyl-N-[4-(methylsulfonyl)phenyl]-1H-pyrrole-3-carboxamide] | 115 | 19 |  |  | 
Cc1c(C(=O)Nc2ccc(S(C)(=O)=O)cc2)cc(CCF)n1-c1ccc(F)cc1OC(F)F [Example 54, 1-[2-(Difluoromethoxy)-4-fluorophenyl]-5-(2-fluoroethyl)-2-methyl-N-[4-(methylsulfonyl)phenyl]-1H-pyrrole-3-carboxamide] | 75 | 14 |  |  | 
Cc1c(C(=O)Nc2ccc(S(C)(=O)=O)cc2)cc(CC(=O)N(C)C)n1-c1ccc(Cl)cc1C(F)(F)F [Example 61, 1-[4-Chloro-2-(trifluoromethyl)phenyl]-5-[2-(dimethylamino)-2-oxoethyl]-2-methyl-N-[4-(methylsulfonyl)phenyl]-1H-pyrrole-3-carboxamide] | 115 | 5.5 |  |  | 
Cc1c(C(=O)Nc2ccc(S(C)(=O)=O)cc2)cc(CCO)n1-c1ccc(F)cc1C(F)(F)F [Example 62, 1-[4-Fluoro-2-(trifluoromethyl)phenyl]-5-(2-hydroxyethyl)-2-methyl-N-[4-(methylsulfonyl)phenyl]-1H-pyrrole-3-carboxamide] |  |  | 8060 | 660 | considerably improved concentration in plasma

Continued, in another order:

Emax [1] [%] | IC50 [1] [nM] | AUC, area under the plasma concentration versus time curve [2] [ng·h/mL] | Cmax [2] [ng/mL] | SMILES | concentration in plasma compared with Reference compound A and Reference compound B ([2]; summary of Table 16, cynomolgus monkey, 3 mg/kg)
119 | 3.4 | 31310 | 1600 | Cc1c(C(=O)Nc2ccc(S(C)(=O)=O)cc2)cc(C[C@H](C)O)n1-c1ccc(F)cc1C(F)(F)F (single isomer, unassigned) [Example 5 - isomer A] | 
84 | 18 | 23950 | 2350 | Cc1c(C(=O)Nc2ccc(S(C)(=O)=O)cc2)cc(C[C@H](C)O)n1-c1ccc(F)cc1OC(F)F (single isomer, unassigned) [Example 9 - isomer A] | 
89 | 7.3 | 24810 | 1600 | Cc1c(C(=O)Nc2ccc(S(C)(=O)=O)cc2)cc(C[C@H](C)O)n1-c1ccc(Cl)cc1OC(F)F (single isomer, unassigned) [Example 11 - isomer A] | 
101 | 3.6 | 13490 | 1000 | Cc1c(C(=O)Nc2ccc(S(C)(=O)=O)cc2)cc(C[C@H](C)O)n1-c1ccc(F)cc1OC(F)(F)F (single isomer, unassigned) [Example 16 - isomer A] | 
94 | 7.8 |  |  | Cc1c(C(=O)Nc2ccc(S(C)(=O)=O)cc2)cc(C[C@H](C)O)n1-c1ccc(F)cc1OC(F)(F)F [Example 16, 1-[4-Fluoro-2-(trifluoromethoxy)phenyl]-5-[(2S)-2-hydroxypropyl]-2-methyl-N-[4-(methylsulfonyl)phenyl]-1H-pyrrole-3-carboxamide] | 
112 | 26 |  |  | Cc1c(C(=O)Nc2ccc(S(C)(=O)=O)cc2)cc(C[C@H](C)O)n1-c1ccc(F)cc1Cl [Example 40, 1-(2-Chloro-4-fluorophenyl)-5-[(2S)-2-hydroxypropyl]-2-methyl-N-[4-(methylsulfonyl)phenyl]-1H-pyrrole-3-carboxamide] | 
110 | 4.8 |  |  | Cc1c(C(=O)Nc2ccc(S(C)(=O)=O)cc2)cc(C[C@H](C)O)n1-c1ccc(Cl)cc1OC(F)(F)F [Example 42, 1-[4-Chloro-2-(trifluoromethoxy)phenyl]-5-[(2S)-2-hydroxypropyl]-2-methyl-N-[4-(methylsulfonyl)phenyl]-1H-pyrrole-3-carboxamide] | 
100 | 40 |  |  | Cc1c(C(=O)Nc2ccc(S(C)(=O)=O)cc2)cc(C[C@H](C)O)n1-c1ccc(Cl)cc1Cl [Example 43, 1-(2,4-Dichlorophenyl)-5-[(2S)-2-hydroxypropyl]-2-methyl-N-[4-(methylsulfonyl)phenyl]-1H-pyrrole-3-carboxamide] | 
85 | 7.1 |  |  | Cc1c(C(=O)Nc2ccc(S(C)(=O)=O)cc2)cc(C[C@H](C)O)n1-c1ccc(Cl)cc1Oc1ccc(F)cc1 [Example 45, 1-[4-Chloro-2-(4-fluorophenoxy)phenyl]-5-[(2S)-2-hydroxypropyl]-2-methyl-N-[4-(methylsulfonyl)phenyl]-1H-pyrrole-3-carboxamide] | 
